How the values were obtained:
HL-60 cells [1] = assay: Apoptosis by cleaved PARP (Asp214) staining, flow cytometry; assay type: cell-based; details: 1.8 µM, 24 h, Figure 3b
Description: (§1) To evaluate the anticancer potential of 5a, the ability of this compound to inhibit cell proliferation, induce apoptotic cell death, and generate DNA damage was examined by flow cytometry using the ‘Apoptosis, DNA Damage, and Cell Proliferation Kit’ (BD Bioscience). After 24 h treatment with 5a in increasing concentrations, HL-60 cells were exposed to bromodeoxyuridine (BrdU) for additional 8 h. Then, the cells were simultaneously stained with fluorochrome-labeled anti-BrdU, anti-cleaved PARP (Asp214) and anti-H2AX (pS139).
To check whether the cytotoxic effect of 5a was associated with the induction of apoptosis, the pro-apoptotic activity of this compound was investigated. Apoptosis regulation is triggered by the activation of caspases. Caspase-3, an effector caspase, cleaves a number of vital proteins, leading to cell death. The activity of caspase-3 was assessed by flow cytometry using fluorochrome-labeled antibodies recognizing 89 kDa-cleaved PARP fragments released from PARP by caspase-3 in the executive stage of apoptosis.
(§2) Cell proliferation, DNA damage, and apoptotic cell death were determined using Apoptosis, DNA Damage, and Cell Proliferation Kit (BD Bioscience, San Jose, CA, USA), according to the manufacturer protocol. Briefly, HL-60 cells were seeded in 6-well plates (4.0 × 10^5 cells/mL) in 2 mL of growth medium and treated with 5a for 24 h. Afterwards, the bromodeoxyuridine (BrdU, 10 µM) was added and the cells were incubated for additional 8 h. Next, the cells were collected by centrifugation (300× g, 5 min), counted, fixed, and permeabilized according to the manufacturer’s instructions. The cells were incubated with DNase (300 µg/mL in PBS) for 1 h at 37 °C and then simultaneously stained with fluorochrome-labeled anti-BrdU, H2AX (pS139), and cleaved PARP (Asp214) antibodies, for 20 min at room temperature. After washing, DNA staining with DAPI (1 µg/mL of the staining buffer) was performed, and the cells were analyzed by flow cytometry using CytoFLEX (Beckman Coulter, Inc., Brea, CA, USA).

HL-60 cells [2] = assay: Cell proliferation by BrdU incorporation, flow cytometry; assay type: cell-based; details: 1.8 µM
Description: as §1
BrdU is an analog of thymidine, and its incorporation into DNA was used as an index of cell proliferation. […] At 1.8 µM concentration, this analog caused a 2.2-fold decrease in BrdU incorporation (Figure 4a).
as §2, with “Afterwards, the bromodeoxyuridine (BrdU, 10 µM) was added and the cells were incubated for additional 8 h.” left out, “The cells were incubated with DNase (300 µg/mL in PBS) for 1 h at 37 °C and then simultaneously stained with fluorochrome-labeled anti-BrdU, H2AX (pS139), and cleaved PARP (Asp214) antibodies, for 20 min at room temperature.” left out

MCF-7 cells = assay: MTT in vitro cytotoxicity assay, MCF-7; assay type: cell-based; details: Homo sapiens, MCF7, 48 h incubation, mean ± SEM
Description: The promyelocytic leukemia HL-60 and breast cancer adenocarcinoma MCF-7 cell lines were purchased from the European Collection of Cell Cultures (ECACC). Leukemia cells were cultured in RPMI 1640 plus GlutaMax I medium (Gibco/Life Technologies, Carlsbad, CA, USA). MCF-7 cells were maintained in Minimum Essential Medium Eagle (Sigma Aldrich, St. Louis, MO, USA) and supplemented with 2 mM glutamine and men non-essential amino acid solution (Sigma Aldrich, St. Louis, MO, USA). Both media were supplemented with 10% heat-inactivated fetal bovine serum (Biological Industries, Beit-Haemek, Israel) and antibiotics (100 U/mL penicillin and 100 μg/mL streptomycin) (Sigma-Aldrich, St. Louis, MO, USA). Human umbilical vein endothelial cells (HUVECs) were purchased from the American Type Culture Collection (ATCC). Cells were cultured using EGM-2 Endothelial Medium BulletKit purchased from Lonza (Lonza, Walkersville, MD, USA). Cells were maintained at 37 °C in 5% CO2 atmosphere and grown until 80% confluent.
The tested compounds were dissolved in sterile dimethyl sulfoxide (DMSO) and further diluted with culture medium. The final concentration of DMSO in cell cultures was less than 0.1% v/v. Controls without and with 0.1% DMSO were performed in each experiment. At the used concentration, DMSO had no effect on the observed parameters.
The MTT (3-(4,5-dimethylthiazol-2-yl)-2,5-diphenyltetrazolium bromide) assay, which measures the activity of cellular dehydrogenases, was performed according to the Mosmann method. Exponentially growing cells were seeded into 24-well plates at a density of 8 × 10^4 cells/mL and left to grow for 24 h. After 24 h or 48 h of incubation with various concentrations of the tested compounds (dissolved in DMSO and diluted with complete culture medium), cells were incubated with 0.1 mL of MTT solution (5 mg/mL in phosphate buffered saline) for 1.5 h. The metabolically active cells reduced MTT to blue formazan crystals. The plates were centrifuged, and the supernatant was discarded. DMSO (1 mL) was added to each well to dissolve the crystals, whose absorbance was measured at 560 nm using FlexStation 3 Multi-Mode Microplate Reader (Molecular Devices, LLC, San Jose, CA, USA). The untreated cells were used as control. The IC50 values were calculated from the concentration–response curves. The data were expressed as mean ± SEM of three independent experiments.

HL-60 cells [3] = assay: DNA damage by H2AX (pS139) staining, flow cytometry; assay type: cell-based, human; details: 24 h; for increase of phosphorylated H2AX level: vs control
Description: as §1
It is well documented that apoptosis induced by many anticancer drugs may be a consequence of DNA damage. Chemical genotoxins that target DNA can inhibit DNA replication, which leads to the collapse of replication forks and the formation of DNA double strand breaks (DSBs). The generation of DNA damage was evaluated using anti-H2AX (pS139) antibodies directed against the phosphorylated form of human H2AX protein at the pS139 residue that is considered to be a biomarker for DNA DSBs. The treatment of HL-60 cells with 5a increased the levels of phosphorylated H2AX by 4.7- and 7.8-fold (to 1.35 µM and 1.9 µM, respectively), indicating the dose-dependent genotoxic effect of the tested compound (Figure 4c).
as §2

With `C=C1C(=O)c2ccccc2N(S(=O)(=O)c2ccccc2)C1CC` (stereo not drawn) [Compound 5a, 2-Ethyl-3-methylidene-1-(phenylsulfonyl)-2,3-dihydroquinolin-4(1H)-one] the “Q3: H2AX (pS139) and cleaved PARP negative cells (representative plot)” value (HL-60 cells [1]) was 66.8%, the “Q4: cleaved PARP positive, H2AX (pS139) negative cells (representative plot)” value (HL-60 cells [1]) was 15.0% and the “BrdU positive cells (representative plot)” value (HL-60 cells [2]; 24 h, Figure 3a) was 17.5%. The “decrease in BrdU incorporation” value (HL-60 cells [2]; 24 h treatment then BrdU 8 h, vs control) was 2.2 fold, the IC50 (MCF-7 cells) was 2740 ± 70 nM and the “increase of phosphorylated H2AX level” value (HL-60 cells [3]; 1.35 µM) was 4.7 fold. For the same molecule, the “Q1: H2AX (pS139) positive, cleaved PARP negative cells (representative plot)” value (HL-60 cells [3]; 1.8 µM, Figure 3b) was 5.0%, the “Q2: H2AX (pS139) and cleaved PARP positive cells (representative plot)” value (HL-60 cells [3]; 1.8 µM, Figure 3b) was 13.2% and the “increase of phosphorylated H2AX level” value (HL-60 cells [3]; 1.9 µM) was 7.8 fold.
